One compound from article PMC3941082 (Journal of electroanalytical chemistry (Lausanne, …, 2014) can be followed below.

The target of this test is Concanavalin A (Con A), as Con A-ALP conjugate (Canavalia ensiformis, UniProt P02866). Kind of test: competitive electrochemical lectin assay. The class given is binding.
Sequence of Concanavalin A (Con A), as Con A-ALP conjugate (P02866 164-281 limits assumed): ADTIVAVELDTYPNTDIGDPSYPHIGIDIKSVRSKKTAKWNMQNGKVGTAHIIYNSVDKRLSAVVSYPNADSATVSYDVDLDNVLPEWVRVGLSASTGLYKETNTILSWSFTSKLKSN
Sequence of Concanavalin A (Con A), as Con A-ALP conjugate (P02866 30-148 limits assumed): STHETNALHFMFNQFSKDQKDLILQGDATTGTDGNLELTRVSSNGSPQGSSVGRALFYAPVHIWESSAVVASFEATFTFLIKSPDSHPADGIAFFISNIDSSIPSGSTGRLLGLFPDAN

What is called IC50 is the point on the concentration scale where inhibition reaches its midpoint. The low end stands for higher potency, the high end for lower potency. `CO[C@H]1O[C@H](CO)[C@@H](O)[C@H](O)[C@@H]1O` [methyl α-D-mannopyranoside] yielded an IC50 of about 90 µM.
